The results in this text go back to patent publication US20250002954A1, “Novel Compound, Use Thereof, and Method for Producing Same, and Compound-Containing Composition, Method for Producing 4-Trehalosamine, and Microorganism” (Microbial Chemistry Research Foundation, priority 2021, published 2025).

Data set [1] in a line: Measurement of critical micelle concentration (CMC) with CMC assay kit. Format: physicochemical. Here is the method: (§1) For the IMCTA-C8, IMCTA-C9, IMCTA-C10, IMCTA-C11, IMCTA-C12, IMCTA-C13, IMCTA-C14, and IMCTA-C15 (IMCTA-Cn) that were obtained in synthesis examples 1 to 8 and for n-dodecyl-β-D-maltoside (DDM) as control, “critical micelle concentration (CMC)”, “micelle size”, and “Hydrophilic-Lipophilic Balance (HLB) value” were measured or calculated in the following manner.
CMC was measured with a Detergent Critical Micelle Concentration (CMC) Assay Kit (CMC1000, manufactured by ProFoldin) according to the product protocol.

The nature of data set [2]: Measurement of micelle size by dynamic light scattering. Format: physicochemical. How it is done:
as §1
Micelle sizes were measured by dynamic light scattering with Zetasizer Nano S (manufactured by Malvern Panalytical).

For data set [3], the system named is human ovarian cancer cells OVK18 and human malignant melanoma cells Mewo. Kind of data set: Autophagy inducing effect on cultured cells (western blotting of autophagy-related proteins). Particulars: for accumulation of PCD (precursors of cathepsin D) / concentration giving same or higher LC3-II expression, relative to trehalose / p62 / pAkt / phosphorylation of p70 S6K: 24 hours; for expression of LC3-II (autophagy marker): 24 hours treatment, western blotting. Format: cell-based. How it is done:
Expression and phosphorylation patterns of autophagy-related proteins when human ovarian cancer cells or human malignant melanoma cells were treated with 4-trehalosamine and trehalose analog for 24 hours were determined by western blotting.
Human ovarian cancer cells OVK18 (obtained from RIKEN BRC) and human malignant melanoma cells Mewo (JCRB0066) were each inoculated on a 12-well microplate at 8×10^4 cells/mL/well and cultured in DMEM culture medium at 37° C. for 72 hours, after which they were treated with test samples.
The test samples used were the 4-trehalosamine (4TA) obtained in the <Purification process> of production example 10, trehalose (TRH), the IMCTA-Cn compounds obtained in synthesis examples 1 to 8, trehalose ester (TRH-Cn) (manufactured by Dojindo Laboratories), n-dodecyl-β-D-maltoside (DDM), maltose (MLT), sucrose (SCR), and rapamycin (RM). Untreated cells without addition of compounds were used as control.
In treatment with the test samples, in order to avoid contact of a compound with locally high concentration with cells, a half of the culture fluid in each well was taken, and a required amount of test sample was dissolved in it. After dissolving it sufficiently, it was returned to the original well and treated at 37° C. for 24 hours.
Subsequently, culture medium containing the test samples was removed, washed once with PBS, and dissolved with 2×SDS sample buffer not containing 2-mercaptoethanol (2-ME) or bromphenol blue (BPB). After measuring the protein concentration in the dissolved sample with a BCA protein assay kit (manufactured by Thermo Fisher Scientific), 2-ME and BPB were added and the sample was boiled for 5 minutes, which was used as a sample for western blotting.
The western blotting was performed in a similar manner to test example 4 except that anti-LC3 antibody, which is a marker for autophagy, anti-p62, anti-cathepsin D antibody, anti-Phospho-Akt (Ser473) antibody, anti-Akt antibody, anti-Phospho-p70 S6K (T389) antibody, and anti-p70 S6K antibody (all manufactured by Cell Signaling Technology) were used at 1/2,000 dilution as the primary antibodies in the method described in test example 4.
The results for human ovarian cancer cells OVK18 are shown in FIGS. 20A to 20C, and the results for human malignant melanoma cells Mewo are shown in FIGS. 20D to 20F. In FIGS. 20A, 20B, 20D, and 20E, “PCD” denotes precursors of cathepsin D and “CD-HC” denotes cathepsin D heavy chain.
For orientation: In western blotting, separated proteins are transferred to a membrane and probed.

The test system of data set [4] is Mycobacterium smegmatis mc^2 (ATCC 700084). Kind of data set: Staining of mycobacterium with IMCTA-fluorescein, IMCTA-biotin or IMCTA-azide. Format: cell-based. Particulars: for ingestion into bacterial cells and fluorescence (staining): 10 μg/mL IMCTA-fluorescein, 30 μg/mL IMCTA-biotin, 10 μg/mL IMCTA-azide, 37° C., 8 hours; for ingestion in the presence of sucrose (blocking): sucrose 1% or 3%.

`CCCCCCCCCCCCO[C@@H]1O[C@H](CO)[C@@H](O[C@H]2O[C@H](CO)[C@@H](O)[C@H](O)[C@H]2O)[C@H](O)[C@H]1O` [DDM, n-dodecyl-β-D-maltoside, reference compound]: the CMC in data set [1] is reported as 0.23 mM. The same compound came in with a Micelle size in data set [2] of 6.1 ± 0.1 nm.
The compound `CCCCCCCCN[C@@H]1C(CO)O[C@H](O[C@H]2OC(CO)[C@@H](O)C(O)C2O)C(O)C1O` (some centres unmarked) [IMCTA-C8] came in with a CMC in data set [1] of 8.02 mM. In data set [2], this compound came in with a Micelle size of 4.3 ± 1.7 nm.
`CCCCCCCCCN[C@@H]1C(CO)O[C@H](O[C@H]2OC(CO)[C@@H](O)C(O)C2O)C(O)C1O` (some centres unmarked) [IMCTA-C9] gave a CMC in data set [1] of 3.84 mM. In addition, the Micelle size in data set [2] is on record as 5.5 ± 1.3 nm.
The corresponding values for `CCCCCCCCCCN[C@@H]1C(CO)O[C@H](O[C@H]2OC(CO)[C@@H](O)C(O)C2O)C(O)C1O` (some centres unmarked) [IMCTA-C10] are 2.67 mM and 5.9 ± 1.8 nm.
The corresponding values for `CCCCCCCCCCCN[C@@H]1C(CO)O[C@H](O[C@H]2OC(CO)[C@@H](O)C(O)C2O)C(O)C1O` (some centres unmarked) [IMCTA-C11] are 0.96 mM and 15.9 ± 6.5 nm.
The corresponding values for `CCCCCCCCCCCCN[C@@H]1C(CO)O[C@H](O[C@H]2OC(CO)[C@@H](O)C(O)C2O)C(O)C1O` (some centres unmarked) [IMCTA-C12] are 0.58 mM and 13.7 ± 6.4 nm.
`CCCCCCCCCCCCCN[C@@H]1C(CO)O[C@H](O[C@H]2OC(CO)[C@@H](O)C(O)C2O)C(O)C1O` (some centres unmarked) [IMCTA-C13] showed a CMC in data set [1] of 0.24 mM. In data set [2], this compound returned a Micelle size of 17.3 ± 10.9 nm. In data set [3], the “accumulation of PCD (precursors of cathepsin D)” value is listed as “no accumulation of PCD was observed”; the “concentration giving same or higher LC3-II expression, relative to trehalose” value is on record as “several thousand times lower than trehalose”; the p62 entry was “accumulation trend of p62”; the pAkt result is listed as “decreasing trend of pAkt”. Besides, in data set [3], the “phosphorylation of p70 S6K” value is listed as “p70 S6K was not dephosphorylated” and the “expression of LC3-II (autophagy marker)” value is listed as “particularly strong expression”.
`CCCCCCCCCCCCCCCN[C@@H]1C(CO)O[C@H](O[C@H]2OC(CO)[C@@H](O)C(O)C2O)C(O)C1O` (some centres unmarked) [IMCTA-C15] came in with a CMC in data set [1] of 0.06 mM. In addition, the Micelle size in data set [2] is given as 92.5 ± 49 nm. Moreover, in data set [3], the “accumulation of PCD (precursors of cathepsin D)” value is “no accumulation of PCD was observed”; the “concentration giving same or higher LC3-II expression, relative to trehalose” value is given as “several thousand times lower than trehalose”; the p62 result is on record as “accumulation trend of p62”; the pAkt result is “decreasing trend of pAkt”. Besides, in data set [3], the “phosphorylation of p70 S6K” value is “p70 S6K was not dephosphorylated” and the “expression of LC3-II (autophagy marker)” value is “particularly strong expression”.
Turning to `[N-]=[N+]=N[C@@H]1C(CO)O[C@H](O[C@H]2OC(CO)[C@@H](O)C(O)C2O)C(O)C1O` (some centres unmarked) [IMCTA-azide, 4-azide-4-deoxy-trehalose], in data set [4], the “ingestion into bacterial cells and fluorescence (staining)” value was “ingested into Mycobacterium smegmatis bacterial cells and emitted fluorescence”; the “ingestion in the presence of sucrose (blocking)” value is “suppression of ingestion was observed”. For the same compound, the “fluorescence strength compared among labelers” value in data set [4] (same amount of labeler) is listed as “strongest fluorescence”. Moreover, the “ingestion in the presence of trehalose (blocking)” value in data set [4] (trehalose 1% or 3%) is on record as “suppression of ingestion was observed”.
With `O=C(CCCC[C@@H]1SC[C@@H]2NC(=O)N[C@@H]21)N[C@@H]1C(CO)O[C@H](O[C@H]2OC(CO)[C@@H](O)C(O)C2O)C(O)C1O` (some centres unmarked) [IMCTA-biotin], in data set [4], the “ingestion into bacterial cells and fluorescence (staining)” value was “ingested into Mycobacterium smegmatis bacterial cells and emitted fluorescence”; the “ingestion in the presence of sucrose (blocking)” value is “some suppression of ingestion by sucrose”. Also, the staining pattern result in data set [4] (fluorescence microscope) is “patch-like staining pattern”.
